Reference: PubChem BioAssay AID248 (DTP/NCI, 2004)
“And” between values parts separate entries of the source, which are not always exact repeats. Equal entries are not always repeated. Inconclusive results and toxic doses are left out. Cut-off read from the data, not from the text of the source: active = T/C of 150% or more; inactive = T/C below 125%.

Tested on: L1210 leukemia ip in BDF1 mice, survival T/C
Assay: NCI In Vivo Anticancer Drug Screen. Data for tumor model L1210 Leukemia (intraperitoneal) in B6D2F1 (BDF1) mice
Settings: endpoint: mean survival time, higher = longer survival
Method in brief: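 Survival endpoint. Drug-treated group vs vehicle group, expressed as T divided by C. Tumor passaged by transplantation.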

[1] = dose: 100.0 mg/kg/injection, schedule: Q01DX001 (ip), vehicle: saline
[2] = dose: 200.0 mg/kg/injection, schedule: Q01DX001 (ip), vehicle: saline
[3] = dose: 100.0 mg/kg/injection, schedule: Q01DX009 (ip), vehicle: Klucel (hydroxypropylcellulose) (HPC)
[4] = dose: 200.0 mg/kg/injection, schedule: Q01DX009 (ip), vehicle: Klucel (hydroxypropylcellulose) (HPC)
[5] = dose: 400.0 mg/kg/injection, schedule: Q01DX009 (ip), vehicle: Klucel (hydroxypropylcellulose) (HPC)
[6] = dose: 100.0 mg/kg/injection, schedule: Q04DX003 (ip), vehicle: Klucel (hydroxypropylcellulose) (HPC)
[7] = dose: 200.0 mg/kg/injection, schedule: Q04DX003 (ip), vehicle: Klucel (hydroxypropylcellulose) (HPC)
[8] = dose: 400.0 mg/kg/injection, schedule: Q04DX003 (ip), vehicle: Klucel (hydroxypropylcellulose) (HPC)
[9] = dose: 50.0 mg/kg/injection, schedule: Q01DX001 (ip), vehicle: carboxymethylcellulose (CMC)
[10] = dose: 100.0 mg/kg/injection, schedule: Q01DX001 (ip), vehicle: carboxymethylcellulose (CMC)
[11] = dose: 200.0 mg/kg/injection, schedule: Q01DX001 (ip), vehicle: carboxymethylcellulose (CMC)
[12] = dose: 400.0 mg/kg/injection, schedule: Q01DX001 (ip), vehicle: carboxymethylcellulose (CMC)

Measured: T/C

NCc1cc[n+]([O-])cc1
inactive: dose: 25.0 mg/kg/injection, schedule: Q04DX002 (ip), vehicle: saline 102 % of control | dose: 50.0 mg/kg/injection, schedule: Q04DX002 (ip), vehicle: saline 102 % of control | dose: 100.0 mg/kg/injection, schedule: Q04DX002 (ip), vehicle: saline 102 % of control | dose: 400.0 mg/kg/injection, schedule: Q04DX002 (ip), vehicle: saline 88 % of control

O=S(=O)(Cl)OO/C=C\OOS(=O)(=O)Cl
inactive: [1] 101 % of control | [2] 108 % of control

COc1cccc(NC(=O)c2cccc(C(=O)Nc3cccc(OC)c3)c2)c1
inactive: [3] 94 % of control | [4] 91 % of control | [5] 86 % of control

CCOC(=O)c1cc(C(=O)OCC)c(C#N)c(=O)[nH]1
inactive: [3] 103 % of control | [6] 100 % of control | [4] 88 % of control | [7] 88 % of control | [5] 94 % of control | [8] 98 % of control

CCCCCC[As](=O)(O)CCCCCC
inactive: dose: 50.0 mg/kg/injection, schedule: Q01DX001 (ip), vehicle: saline 103 % of control

c1ccc(-c2nc(N3CCOCC3)nc3ccccc23)cc1
inactive: dose: 100.0 mg/kg/injection, schedule: Q01DX009 (ip), vehicle: saline with Tween-80 94 % of control | dose: 200.0 mg/kg/injection, schedule: Q01DX009 (ip), vehicle: saline with Tween-80 90 % of control

CC(C)(C)CC(C)(C)c1ccc(OCCOc2ccc(NS(=O)(=O)c3ccc([N+](=O)[O-])cc3)cc2)cc1
inactive: [6] 91 % of control | [7] 100 % of control | [8] 91 % of control

CCC(=O)NC(N)=S
inactive: dose: 25.0 mg/kg/injection, schedule: Q01DX009 (ip), vehicle: Klucel (hydroxypropylcellulose) (HPC) 96 % of control | dose: 50.0 mg/kg/injection, schedule: Q01DX009 (ip), vehicle: Klucel (hydroxypropylcellulose) (HPC) 94 % of control

O=C(CC(=O)c1ccccc1)Nc1ccc([N+](=O)[O-])cn1
inactive: dose: 50.0 mg/kg/injection, schedule: Q04DX003 (ip), vehicle: Klucel (hydroxypropylcellulose) (HPC) 91 % of control | dose: 100.0 mg/kg/injection, schedule: Q01DX001 (ip), vehicle: Klucel (hydroxypropylcellulose) (HPC) 103 % of control | dose: 200.0 mg/kg/injection, schedule: Q01DX001 (ip), vehicle: Klucel (hydroxypropylcellulose) (HPC) 105 % of control | [7] 93 % of control | dose: 400.0 mg/kg/injection, schedule: Q01DX001 (ip), vehicle: Klucel (hydroxypropylcellulose) (HPC) 98 % of control

CC(=O)OCC1OC(Oc2ncc(C)c(=O)[nH]2)C(Nc2ccc([N+](=O)[O-])cc2[N+](=O)[O-])C(OC(C)=O)C1OC(C)=O (stereo not drawn)
inactive: [9] 100 % of control | [10] 97 % of control | [11] 103 % of control | [12] 92 % of control

CCS(=O)(=O)C(CCC(C)C)CCC(C)C
inactive: [10] 102 % of control | [11] 109 % of control | [12] 104 % of control

CSc1nn2c(SC)nnc2s1
inactive: [9] 104 % of control | [10] 101 % of control | [11] 120 % of control

O=C(/C=C/c1ccc([N+](=O)[O-])s1)c1cccc([N+](=O)[O-])c1
inactive: dose: 100.0 mg/kg/injection, schedule: Q04DX002 (ip), vehicle: Klucel (hydroxypropylcellulose) (HPC) 91 % of control | dose: 200.0 mg/kg/injection, schedule: Q04DX002 (ip), vehicle: Klucel (hydroxypropylcellulose) (HPC) 100 % of control | dose: 400.0 mg/kg/injection, schedule: Q04DX002 (ip), vehicle: Klucel (hydroxypropylcellulose) (HPC) 100 % of control

O=C(Nc1ccc(S(=O)(=O)NC2CCCCC2)cc1)OC(c1ccccc1)c1ccccc1
inactive: [1] 96 % of control | [2] 94 % of control | dose: 400.0 mg/kg/injection, schedule: Q01DX001 (ip), vehicle: saline 100 % of control

Nc1ccn(CC(=O)c2ccc(Cl)s2)c(=O)n1
inactive: dose: 100.0 mg/kg/injection, schedule: Q01DX009 (ip), vehicle: water 95 % of control | dose: 100.0 mg/kg/injection, schedule: Q04DX003 (ip), vehicle: water 101 % of control | dose: 200.0 mg/kg/injection, schedule: Q01DX009 (ip), vehicle: water 101 % of control | dose: 200.0 mg/kg/injection, schedule: Q04DX003 (ip), vehicle: water 100 % of control | dose: 400.0 mg/kg/injection, schedule: Q04DX003 (ip), vehicle: water 102 % of control

CS(=O)(=O)CCC(C#N)(CCS(C)(=O)=O)c1ccccc1
inactive: [6] 110 % of control | [7] 100 % of control | [8] 102 % of control

COC1(OC)C2(Cl)CCC1(Cl)C(Cl)=C2Cl
inactive: dose: 100.0 mg/kg/injection, schedule: Q01DX001 (ip), vehicle: other 98 % of control | dose: 100.0 mg/kg/injection, schedule: Q01DX001 (ip), vehicle: saline with Tween-80 100 % of control | [3] 100 % of control | [6] 102 % of control | dose: 200.0 mg/kg/injection, schedule: Q01DX001 (ip), vehicle: other 98 % of control | dose: 200.0 mg/kg/injection, schedule: Q01DX001 (ip), vehicle: saline with Tween-80 100 % of control | [4] 103 % of control | [7] 94 % of control | dose: 400.0 mg/kg/injection, schedule: Q01DX001 (ip), vehicle: other 92 % of control | dose: 400.0 mg/kg/injection, schedule: Q01DX001 (ip), vehicle: saline with Tween-80 97 % of control | [5] 90 % of control | [8] 96 % of control

CN(C)Cc1ccccc1CO
inactive: dose: 75.0 mg/kg/injection, schedule: Q04DX002 (ip), vehicle: Klucel (hydroxypropylcellulose) (HPC) 101 % of control | dose: 150.0 mg/kg/injection, schedule: Q04DX002 (ip), vehicle: Klucel (hydroxypropylcellulose) (HPC) 90 % of control | dose: 300.0 mg/kg/injection, schedule: Q04DX002 (ip), vehicle: Klucel (hydroxypropylcellulose) (HPC) 97 % of control

CNC(=O)c1cc(NC(=O)c2ccc(C(=O)Nc3cc(C(=O)NC)cc(C4=NCCN4)c3)cc2)cc(C2=NCCN2)c1
inactive: dose: 16.0 mg/kg/injection, schedule: Q01DX015 (ip), vehicle: methylcellulose (MC) 90 % of control | dose: 25.0 mg/kg/injection, schedule: Q01DX009 (ip), vehicle: carboxymethylcellulose (CMC) 96 % of control | dose: 31.0 mg/kg/injection, schedule: Q01DX015 (ip), vehicle: methylcellulose (MC) 94 % of control | dose: 50.0 mg/kg/injection, schedule: Q01DX009 (ip), vehicle: carboxymethylcellulose (CMC) 96 % of control | dose: 62.0 mg/kg/injection, schedule: Q01DX015 (ip), vehicle: methylcellulose (MC) 94 % of control and 120 % of control | [10] 96 % of control | dose: 100.0 mg/kg/injection, schedule: Q01DX009 (ip), vehicle: carboxymethylcellulose (CMC) 113 % of control | dose: 125.0 mg/kg/injection, schedule: Q01DX015 (ip), vehicle: methylcellulose (MC) 94 % of control and 102 % of control | [11] 91 % of control | dose: 200.0 mg/kg/injection, schedule: Q01DX009 (ip), vehicle: carboxymethylcellulose (CMC) 98 % of control | dose: 500.0 mg/kg/injection, schedule: Q01DX015 (ip), vehicle: methylcellulose (MC) 106 % of control
